Values of other authors, collected in patent publication US20230039551A1, “BUFFER- AND CHELATOR-FREE, STABLE OPHTHALMOLOGICAL COMPOSITIONS OF KETOROLAC AND PHENYLEPHRINE AND APPLICATIONS THEREOF” (Somerset Therapeutics, LLC, priority 2021, published 2023).
Counter-ions that a name gives are not always drawn.

## O=C(c1ccccc1)c1ccc2n1CCC2C(=O)O (centres unmarked) [Ketorolac tromethamine, 2-amino-2-(hydroxymethyl)propane-1,3-diol; 5-benzoyl-2,3-dihydro-1H-pyrrolizine-1-carboxylic acid]
  pKa value: about 3.5

## CNC[C@H](O)c1cccc(O)c1 [Phenylephrine HCl, 3-(1R)-1-hydroxy-2-(methylamino)ethyl]phenol; hydrochloride]
  pKa value: about 9.07
